These results are taken from patent US20090176696A1, “Methods And Compositions For Modulating An Immune Response” (priority 2006, published 2009).

In one data set the test system is Bone marrow-derived DCs. Description: Surface expression of MHC Class II and costimulatory molecules on DCs by immunofluorescence analysis. In kind it is cell-based, BALB/c mice. How it is done:
Bone marrow-derived DCs from BALB/c mice were cultured for 6 hours with (i) TCT (10 μg/ml) or medium alone, then stimulated with B. pertussis LPS at (ii) 10 ng/ml and (iii) 100 ng/ml for a further 12 hours and analysed for surface expression of MHC Class II and costimulatory molecules by immunofluorescence analysis with Abs specific for MHC Class II (a), CD86 (b), and ICAM-1 (c). (FIG. 5).

The subject of data set [1] is KLH-specific T cell and antibody responses. The experiment in a line: TCT injection 6 hours before immunisation with KLH and E. coli heat labile enterotoxin (LT); ex vivo lymph node responses and antibody titres. In kind it is in vivo, BALB/c mice. How it is done:
Groups of 5 BALB/c mice were injected subcutaneously into the flank with PBS or TCT (10 μg/mouse) and then immunised with KLH (20 μg/mouse) or KLH with E. coli heat labile enterotoxin (LT) (100 ng/mouse) 6 hours later. The T cell response was assessed 14 days later from local inguinal lymph node cells stimulated with antigen ex vivo.
Lymph node (FIG. 10) cell suspensions were cultured in the presence of various concentrations of KLH (2, 10, 50 μg/ml) and PMA/CD3 or medium were used as positive and negative controls respectively. Supernatants were collected 72 hours later. Concentrations of IFN-gamma, IL-10, IL-4 and IL-5 in supernatants were evaluated by ELISA (FIG. 10). KLH-specific antibody titres were also determined by ELISA (FIG. 11). Results are the mean responses (±SD) for 5 mice assessed individually in triplicate.

Data set [2] has as its system hamster tracheal epithelial (HTE) cells. As to conditions: isolated cultured HTE cells; cited from earlier work.
In a further data set the target is T1, human NOD1 (Homo sapiens, UniProt Q9Y239).
T1 sequence (Q9Y239 1-953): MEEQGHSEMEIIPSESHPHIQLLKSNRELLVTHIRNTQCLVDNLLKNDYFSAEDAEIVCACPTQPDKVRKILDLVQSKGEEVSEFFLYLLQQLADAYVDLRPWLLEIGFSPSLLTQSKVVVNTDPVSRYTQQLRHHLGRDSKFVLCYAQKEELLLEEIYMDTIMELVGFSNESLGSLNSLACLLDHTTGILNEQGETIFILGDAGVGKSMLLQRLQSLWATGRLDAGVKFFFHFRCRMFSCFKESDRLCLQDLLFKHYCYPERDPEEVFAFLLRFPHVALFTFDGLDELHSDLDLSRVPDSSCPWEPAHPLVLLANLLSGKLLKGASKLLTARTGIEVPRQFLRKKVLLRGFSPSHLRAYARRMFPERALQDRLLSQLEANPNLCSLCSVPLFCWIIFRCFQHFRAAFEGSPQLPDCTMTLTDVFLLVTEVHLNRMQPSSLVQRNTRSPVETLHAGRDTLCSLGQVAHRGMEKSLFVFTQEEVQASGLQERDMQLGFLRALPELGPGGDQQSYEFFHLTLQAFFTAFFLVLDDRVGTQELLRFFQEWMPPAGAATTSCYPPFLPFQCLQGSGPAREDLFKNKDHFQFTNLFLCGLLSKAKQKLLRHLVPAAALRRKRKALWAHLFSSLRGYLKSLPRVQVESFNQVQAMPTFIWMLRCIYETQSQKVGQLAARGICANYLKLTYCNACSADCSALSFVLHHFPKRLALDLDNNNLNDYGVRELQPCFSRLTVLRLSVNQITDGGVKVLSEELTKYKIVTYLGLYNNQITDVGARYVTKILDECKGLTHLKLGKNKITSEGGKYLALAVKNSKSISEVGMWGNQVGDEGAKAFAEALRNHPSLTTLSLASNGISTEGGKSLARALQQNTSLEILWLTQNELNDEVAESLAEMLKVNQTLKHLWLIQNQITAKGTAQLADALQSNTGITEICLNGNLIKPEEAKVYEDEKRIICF
As to conditions: cited from earlier work.

The next data set has as its target T2, murine NOD1 (Mus musculus, UniProt Q8BHB0).
T2 sequence (Q8BHB0 1-953): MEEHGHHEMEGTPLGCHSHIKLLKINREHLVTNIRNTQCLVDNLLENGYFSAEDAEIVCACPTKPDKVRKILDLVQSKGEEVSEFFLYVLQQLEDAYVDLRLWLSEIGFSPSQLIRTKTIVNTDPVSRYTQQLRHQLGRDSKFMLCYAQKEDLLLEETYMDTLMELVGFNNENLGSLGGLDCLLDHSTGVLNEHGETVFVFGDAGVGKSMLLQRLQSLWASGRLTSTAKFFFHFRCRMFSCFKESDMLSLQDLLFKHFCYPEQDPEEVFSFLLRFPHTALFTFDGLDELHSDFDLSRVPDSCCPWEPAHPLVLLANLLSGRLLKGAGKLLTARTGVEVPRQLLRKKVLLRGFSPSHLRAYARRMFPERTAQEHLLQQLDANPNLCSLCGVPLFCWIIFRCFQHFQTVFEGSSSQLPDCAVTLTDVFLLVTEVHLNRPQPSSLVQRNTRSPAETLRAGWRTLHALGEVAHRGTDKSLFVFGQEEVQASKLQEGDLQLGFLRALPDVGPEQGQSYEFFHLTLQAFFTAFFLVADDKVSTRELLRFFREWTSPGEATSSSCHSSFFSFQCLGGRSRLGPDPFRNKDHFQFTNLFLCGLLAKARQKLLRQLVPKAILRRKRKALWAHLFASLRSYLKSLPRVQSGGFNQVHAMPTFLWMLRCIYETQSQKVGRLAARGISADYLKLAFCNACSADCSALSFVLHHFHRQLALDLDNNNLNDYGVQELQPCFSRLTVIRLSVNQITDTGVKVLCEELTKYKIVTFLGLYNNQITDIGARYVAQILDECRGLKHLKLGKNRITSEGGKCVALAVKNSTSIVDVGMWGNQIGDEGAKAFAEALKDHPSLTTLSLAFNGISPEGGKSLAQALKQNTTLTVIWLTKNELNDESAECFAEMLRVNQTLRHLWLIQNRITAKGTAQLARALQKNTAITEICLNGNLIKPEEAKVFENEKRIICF
The following applies: cited from earlier work.

The mark [3] stands for this setting: TCT 10 μg/mouse 6 hours before KLH and LT.
Setting [4] is: TCT 10 μg/mouse 6 hours before KLH with LT.

For the compound `CC(=O)NC1C(OC2C3COC(O3)C(NC(C)=O)C2OC(C)C(=O)NC(C)C(=O)NC(CCC(=O)NC(CCCC(N)C(=O)NC(C)C(=O)O)C(=O)O)C(=O)O)OC(CO)C(O)C1O` (centres unmarked) [TCT, N-acetylglucosaminyl-1,6-anhydro-N-acetylmuramylalanyl-γ-glutamyldiaminopimelylalanine], the “B. pertussis LPS induced expression of the other costimulatory molecules (CD86, ICAM-1)” value with Bone marrow-derived DCs (6 hours TCT pre-treatment) is on record as “did not modulate”. For the same compound, the “MHC Class II expression induced with B. pertussis LPS” value in the data set on Bone marrow-derived DCs (LPS 10 or 100 ng/ml, 6 hours TCT pre-treatment) is listed as “reduced”. Besides, in the data set on Bone marrow-derived DCs (TCT (10 μg/ml) alone), the “MHC Class II expression on DCs” value is on record as “did not influence” and the “co-stimulatory molecule expression on DCs” value is on record as “did not influence”. In addition, in data set [1] (setting [3]), the “antigen-specific IFN-gamma production by lymph node cells” value is “significantly impaired” and the “antigen-specific IL-4 production by lymph node cells” value is listed as “significantly impaired”. In data set [1] (setting [4]), the “KLH-specific IL-5 production, lymph node cells” value is given as “reduction” and the “KLH-specific IL-10 production, lymph node cells” value is “reduction”. For the same compound, in data set [1] (TCT 6 hours before LT and KLH), the “antigen-specific IgG1 titres” value is listed as “no effect”, the “antigen-specific IgG2a titres” value is given as “no effect” and the “total KLH-specific IgG production” value is reported as “no effect”. In addition, the DNA synthesis result in data set [2] is reported as “inhibit DNA synthesis”. In addition, the “NOD1 detection of TCT” value on human NOD1 is “poorly detected”. Further, the “NOD1 detection of TCT” value at murine NOD1 is reported as “did so effectively”.
